Active and inactive are the calls of the source. The rule behind the calls is not given here.
Legend:
Bacillus subtilis = test: Antimicrobial activity against Bacillus subtilis ATCC 6051 at 200 ug/disk; assay type: functional; settings: read-out: IZ
Staphylococcus aureus = test: Antimicrobial activity against Staphylococcus aureus ATCC 29213 at 200 ug/disk; assay type: functional; settings: read-out: IZ
Candida albicans = test: Antimicrobial activity against Candida albicans ATCC 14053 at 200 ug/disk; assay type: functional, organism-based

SMILES	zone of inhibition at 200 µg/disc (Bacillus subtilis) [mm]	zone of inhibition at 200 µg/disc (Staphylococcus aureus) [mm]	Activity (Candida albicans)
COc1c(C(CC(C)C)OCC(C)C)ccc(Oc2c(O)cc(C)cc2C=O)c1C(=O)O (stereo not given) [TENELLIC ACID D]	29	25	inactive
COc1c(C(O)CC(C)C)ccc(Oc2c(O)cc(C)cc2C=O)c1C(=O)O (stereo not given) [TENELLIC ACID B]	9		inactive
COc1c(C(CC(C)C)OC(C)=O)ccc(Oc2c(O)cc(C)cc2C=O)c1C(=O)O (stereo not given) [TENELLIC ACID C]	12	14	inactive
COc1c(C(CC(C)C)OC)ccc(Oc2c(O)cc(C)cc2C=O)c1C(=O)O (stereo not given) [TENELLIC ACID A]	11		inactive

From ChEMBL document CHEMBL1141822, “Tenellic acids A-D: new bioactive diphenyl ether derivatives from the aquatic fungus Dendrospora tenella” (1999)
